Reference: patent publication US12178846B2, “Methods of using gap junctions as therapeutic targets for the treatment of degenerative disorders of the retina” (The Research Foundation for The State University of New York, priority 2014, dated 2024)
“Also recorded” adds a separate entry of the source.

Assays:
GJs = experiment: Retrograde Neurobiotin labeling of amacrine cells coupled to RGCs; format: cell-based, mouse
Description: After experimental treatment, retinas were fixed with 4% paraformaldehyde in a 0.1 M phosphate buffer solution (PBS; pH 7.4) for 30 minutes at room temperature, cryoprotected in 30% sucrose, embedded in Tissue-Tek OCT Compound (Andwin Scientific) and frozen. Cryosections (18-20 μm thick) were cut and mounted on microscope slides. For immunostaining, sections were blocked in 3% donkey serum in 0.1M PBS supplemented with 0.5% Triton X-100, and 0.1% NaN3 for 1 h at room temperature. Primary antibodies were diluted in 0.1M PBS with 0.5% Triton X-100, 0.1% NaN3 and 1% donkey or goat serum. Tissues were then incubated with primary antibodies for 3 hours at room temperature or overnight at 4° C. The following primary antibodies were used: rabbit anti-calretinin 1:2000, rabbit anti-calbindin 1:1000, goat ant-ChAT 1:100 (all from Millipore), rabbit anti-GFAP 1:1000 (Invitrogen), rabbit anti-active caspase 3 1:200 (Abcam); mouse anti-Cx35/36 1:300, mouse anti-Cx45 1:300 (both from Millipore). After extensive washing with 0.1M PBS, tissues were incubated for 1 hour in secondary anti-goat/rabbit/mouse antibodies conjugated to Alexa-488 or Alexa-594 (1:200, Molecular Probes). Retinal sections were counterstained with the nuclear dye propidium iodide (PI, Molecular Probes). Neurobiotin was visualized with Alexa-488/594 conjugated streptavidin (Molecular Probes, 1:200). Tissues were then flat-mounted in Vectashield media (Vector Labs) and fluorescent images were taken using a fluorescent microscope or an Olympus FV1200 MPE confocal microscope.
We used retrograde labeling of RGCs with Neurobiotin to visualize populations of amacrine cells in the inner nuclear layer (INL) to which they were coupled. Globes with attached optic nerves were submersed in oxygenated Ames medium and a drop of Neurobiotin (4% in 0.1 M Tris buffer) was applied to the cut optic nerve for 40 minutes. For retrograde labeling limited to RGCs, Neurobiotin was replaced with Lucifer yellow (LY, 3%). […]

[1] = tested on: RGCs in microbead-injected eyes; experiment: Microbead-induced experimental glaucoma; format: in vivo, mouse
Description: Experimental glaucoma in mice is induced by IOP elevation achieved by intracameral injections of 10 μm polystyrene microbeads (Invitrogen) as previously described (Chen H, et al., Invest Ophthalmol Vis Sci. 52:36-44 (2011)). The intracameral injections are made unilaterally with 2 μl of microbead suspension containing ˜7.2×106 beads using a glass micropipette attached to a microliter syringe. An equivalent volume of phosphate-buffered saline (PBS) is injected in contralateral eyes to serve as a control. Measurements of IOP are made with the commercially-available Tonolab tonometer (Colonial Medical Supply) and are performed weekly for up to 8 weeks after the microbeads injection. Measurements are made between […] and 12 PM, to minimize the effect of diurnal IOP variations. Six IOP measurements are made at each interval and averaged. Experimental glaucoma was induced by intracameral injections of polystyrene microbeads (Chen H, et al., Invest Ophthalmol Vis Sci. 52:36-44 (2011)) in one eye of wild type (WT) mice, connexin knockout (KO) mice and their […] (HET) control littermates, with sham injection of the second eye as control. IOP measurements were performed weekly and animals were sacrificed at 1, 4, or 8 weeks after initial bead injection. To access cell loss, RGCs and coupled ACs were retrogradely labeled with optic nerve injection of Neurobiotin and vertical retinal sections were counterstained with DAPI to determine overall nuclear counts. RGCs were also labeled by Brn3a antibody for identification. In addition to cell counts, overall retinal damage was assessed by GFAP expression. In some experiments gap junctions were blocked with meclofenamic acid (MFA) intravitreal weekly injections or genetically ablated in connexin KO mice (Cx36^−/−, Cx45^−/−, and Cx36^−/−/Cx45^−/− mice). Data are presented as mean±standard mean error. […] Statistical comparisons were assessed using Student's t-test. […]

[2] = tested on: amacrine cells in the INL; experiment: NMDA-induced excitotoxic loss of amacrine cell subpopulations in the INL; format: cell-based, mouse
Description: Various methods were employed to produce cell death. (1) Single cell apoptosis: CytC was injected into individual RGCs or Müller cells for 15 minutes after which retinas were incubated for 4 hours in oxygenated Ames medium before fixation. […] Both control and drug-treated retinas were then exposed for 1 hour to NMDA (100-300 μM) to induce excitotoxicity followed by 4 hours in the control Ames solution. (3) Retinal ischemia: Transient in vivo retinal ischemia was induced by introducing into the anterior chamber a 33-gauge needle attached to a saline-filled reservoir (0.9% sodium chloride) that was raised above the animal so as to increase intraocular pressure (IOP) to a level […]. MFA (2 μl, 500 μM) was administered intravitreally either 30 minutes before or 3 and 24 hours following the ischemic insult. The opposite eye was cannulated, but maintained at normal IOP to serve as a normotensive control. After 40-50 minutes, the needle was withdrawn and ischemia was evidenced by corneal whitening. After 7 days of reperfusion, mice were sacrificed and eyes were processed to assess retinal damage and neuronal death. […]
In some experiments, cells counts were limited to retrograde labeled RGCs in the GCL or certain subpopulation of amacrine cells, identified by specific markers, such as calretinin (CR), calbindin (CB) and choline acetyltransferase (ChAT) in the INL. Fluorescence intensity measures were made of glial fibrillary acidic protein (GFAP), which is overexpressed in Müller glial cells following retinal injury. Expression of GFAP and connexins were quantified by analysis of confocal images with Metavue software (Molecular Devices). Average pixel fluorescence intensities were measured by using uniform rectangular areas (3-5 per image) extending either from the GCL to the outer limiting membrane for GFAP or through the IPL for connexins. […]

[3] = MFA 50 μM 30 min, NMDA 300 μM 1 h, p<0.01

Cc1ccc(Cl)c(Nc2ccccc2C(=O)O)c1Cl [MFA, meclofenamic acid]
number of ChAT-positive ACs labeled with Neurobiotin (GJs; MFA application, p>0.1): did not produce a significant reduction; also recorded: little effect
Neurobiotin labeling of CR-positive ACs in the INL (coupling to RGCs) (GJs; MFA prior to retrograde labeling, p<0.01): effectively eliminated all colocalized labeling; also recorded: significantly reduced
total number of CR-IR cells in the INL (per 500 μm section) (GJs; MFA-treated retinas vs control, p>0.1): comparable to that in control
RGC cell counts ([1]; MFA (50 μM) before and after bead injection, 8 weeks, control 50±1, untreated bead-injected 33±1, p>0.1 vs control): 47±4
RGC counts, MFA alone ([1]; injection of MFA alone in control eyes): no detectable effect
loss of cells (RGC+dAC) in the GCL ([1]; intravitreal MFA, microbead-injected eyes, 8 weeks): prevents loss of cells in GCL
number of CB-immunolabeled ACs in the INL [2, 3]: prevented the loss; also recorded: prevented such reduction
number of CR-immunolabeled ACs in the INL [2, 3]: prevented the loss; also recorded: prevented reduction
number of ChAT-positive ACs in the INL ([2]; MFA, NMDA-induced excitotoxicity, p>0.1): nor was this affected
